Legend:
Cytochrome P450 2D6 = Cytochrome P450 2D6 (Homo sapiens, UniProt P10635); assay: Inhibition of CYP2D6; assay type: ADME
[1] = biological target: Neuronal acetylcholine receptor subunit alpha-7 (Rattus norvegicus, UniProt Q05941); assay: Displacement of [125I]alpha-BTX from alpha-7 nAChR in rat hippocampus membrane; assay type: cell membranes
[2] = biological target: Neuronal acetylcholine receptor subunit alpha-7 (Homo sapiens) (UniProt P36544); assay: Activity at alpha-7 nAChR assessed as stimulation of relative inward current in cultured hippocampal neurons relative to choline; assay type: functional, tissue-based; details: Hippocampus, filed as agonist
Cytochrome P450 2C9 = Cytochrome P450 2C9 (Homo sapiens, UniProt P11712); assay: Inhibition of CYP2C9; assay type: ADME
Cytochrome P450 3A4 = Cytochrome P450 3A4 (Homo sapiens, UniProt P08684); assay: Inhibition of CYP3A4; assay type: ADME
Cytochrome P450 2C19 = Cytochrome P450 2C19 (Homo sapiens, UniProt P33261); assay: Inhibition of CYP2C19; assay type: ADME
Cytochrome P450 1A2 = Cytochrome P450 1A2 (Homo sapiens, UniProt P05177); assay: Inhibition of CYP1A2; assay type: ADME
Cytochrome P450 1A2, sequence (P05177 whole entry): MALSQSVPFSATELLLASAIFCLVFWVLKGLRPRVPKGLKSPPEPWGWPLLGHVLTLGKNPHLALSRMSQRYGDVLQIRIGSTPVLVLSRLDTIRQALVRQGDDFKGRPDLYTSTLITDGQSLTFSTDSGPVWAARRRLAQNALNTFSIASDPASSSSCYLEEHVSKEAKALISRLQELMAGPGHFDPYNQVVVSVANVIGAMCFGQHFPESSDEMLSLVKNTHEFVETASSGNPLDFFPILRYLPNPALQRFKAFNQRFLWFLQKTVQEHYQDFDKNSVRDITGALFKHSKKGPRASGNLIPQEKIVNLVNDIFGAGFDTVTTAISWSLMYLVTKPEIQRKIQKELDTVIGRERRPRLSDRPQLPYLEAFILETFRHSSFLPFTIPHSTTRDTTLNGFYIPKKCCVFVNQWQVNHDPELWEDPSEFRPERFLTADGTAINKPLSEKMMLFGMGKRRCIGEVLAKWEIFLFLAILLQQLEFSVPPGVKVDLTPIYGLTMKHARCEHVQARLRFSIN

Neuronal acetylcholine receptor subunit alpha-7, sequence (Q05941 whole entry): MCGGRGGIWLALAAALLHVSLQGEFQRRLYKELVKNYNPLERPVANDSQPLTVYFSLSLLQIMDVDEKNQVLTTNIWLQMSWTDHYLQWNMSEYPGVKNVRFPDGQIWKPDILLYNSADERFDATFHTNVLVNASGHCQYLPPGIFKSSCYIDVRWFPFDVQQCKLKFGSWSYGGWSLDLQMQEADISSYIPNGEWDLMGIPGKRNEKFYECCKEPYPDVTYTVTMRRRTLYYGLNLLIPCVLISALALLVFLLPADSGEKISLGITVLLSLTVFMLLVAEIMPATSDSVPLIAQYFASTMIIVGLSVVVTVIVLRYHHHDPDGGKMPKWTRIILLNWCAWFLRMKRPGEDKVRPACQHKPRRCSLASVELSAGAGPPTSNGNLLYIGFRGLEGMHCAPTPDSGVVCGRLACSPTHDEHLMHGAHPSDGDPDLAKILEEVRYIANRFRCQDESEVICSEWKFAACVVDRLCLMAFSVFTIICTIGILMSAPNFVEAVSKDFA
Cytochrome P450 2D6, sequence (P10635 whole entry): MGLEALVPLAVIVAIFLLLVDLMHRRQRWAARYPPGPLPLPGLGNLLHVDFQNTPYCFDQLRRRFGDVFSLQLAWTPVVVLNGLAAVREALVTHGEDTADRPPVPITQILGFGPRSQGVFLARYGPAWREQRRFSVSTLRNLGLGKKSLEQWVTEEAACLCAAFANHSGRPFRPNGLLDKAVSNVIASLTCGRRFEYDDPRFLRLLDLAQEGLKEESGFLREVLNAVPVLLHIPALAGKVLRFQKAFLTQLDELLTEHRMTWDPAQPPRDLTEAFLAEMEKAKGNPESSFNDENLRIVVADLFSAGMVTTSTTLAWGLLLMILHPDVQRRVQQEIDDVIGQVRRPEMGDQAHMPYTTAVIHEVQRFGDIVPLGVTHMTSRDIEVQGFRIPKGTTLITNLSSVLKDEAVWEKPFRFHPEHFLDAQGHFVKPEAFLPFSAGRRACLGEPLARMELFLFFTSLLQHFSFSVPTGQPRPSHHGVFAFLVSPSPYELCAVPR
Neuronal acetylcholine receptor subunit alpha-7 (Homo sapiens), sequence (P36544 whole entry): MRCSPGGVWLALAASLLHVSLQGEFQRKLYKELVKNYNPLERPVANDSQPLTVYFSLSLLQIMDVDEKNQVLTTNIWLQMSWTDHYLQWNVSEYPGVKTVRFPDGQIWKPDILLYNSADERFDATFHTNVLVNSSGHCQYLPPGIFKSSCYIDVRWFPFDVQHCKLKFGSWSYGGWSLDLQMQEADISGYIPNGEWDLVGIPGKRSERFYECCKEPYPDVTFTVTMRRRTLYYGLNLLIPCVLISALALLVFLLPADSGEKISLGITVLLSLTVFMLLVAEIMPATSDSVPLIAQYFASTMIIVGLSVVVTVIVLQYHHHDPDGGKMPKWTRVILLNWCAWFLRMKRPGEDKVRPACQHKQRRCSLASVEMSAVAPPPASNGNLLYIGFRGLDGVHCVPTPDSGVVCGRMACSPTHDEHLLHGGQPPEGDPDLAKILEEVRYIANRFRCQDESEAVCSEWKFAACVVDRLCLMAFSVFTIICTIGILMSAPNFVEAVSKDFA
Cytochrome P450 2C9, sequence (P11712 whole entry): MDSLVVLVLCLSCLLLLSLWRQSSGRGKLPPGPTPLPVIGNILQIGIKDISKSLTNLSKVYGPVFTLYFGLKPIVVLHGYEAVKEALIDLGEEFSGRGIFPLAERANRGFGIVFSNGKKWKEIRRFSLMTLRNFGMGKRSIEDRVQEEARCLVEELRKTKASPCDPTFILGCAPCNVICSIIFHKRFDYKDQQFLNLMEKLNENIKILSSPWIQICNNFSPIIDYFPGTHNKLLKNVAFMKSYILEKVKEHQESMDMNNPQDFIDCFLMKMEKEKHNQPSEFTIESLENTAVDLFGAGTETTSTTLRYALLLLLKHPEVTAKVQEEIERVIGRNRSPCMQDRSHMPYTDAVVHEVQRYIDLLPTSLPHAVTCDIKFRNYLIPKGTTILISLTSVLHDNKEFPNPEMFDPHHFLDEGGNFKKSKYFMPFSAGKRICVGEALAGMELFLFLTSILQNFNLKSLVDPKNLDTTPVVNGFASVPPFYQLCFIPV
Cytochrome P450 2C19, sequence (P33261 whole entry): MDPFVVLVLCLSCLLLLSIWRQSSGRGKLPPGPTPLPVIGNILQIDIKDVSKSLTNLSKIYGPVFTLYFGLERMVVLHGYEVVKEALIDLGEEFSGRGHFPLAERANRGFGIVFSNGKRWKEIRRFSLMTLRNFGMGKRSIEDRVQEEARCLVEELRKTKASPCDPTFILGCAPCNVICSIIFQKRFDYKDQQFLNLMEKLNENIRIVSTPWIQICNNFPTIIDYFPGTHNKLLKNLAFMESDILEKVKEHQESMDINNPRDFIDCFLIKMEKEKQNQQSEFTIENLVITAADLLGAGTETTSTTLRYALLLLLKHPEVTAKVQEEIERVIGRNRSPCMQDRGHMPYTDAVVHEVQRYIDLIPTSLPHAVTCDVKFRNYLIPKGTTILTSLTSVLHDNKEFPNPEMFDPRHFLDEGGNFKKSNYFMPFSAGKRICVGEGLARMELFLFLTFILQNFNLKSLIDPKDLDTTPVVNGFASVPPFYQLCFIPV
Cytochrome P450 3A4, sequence (P08684 whole entry): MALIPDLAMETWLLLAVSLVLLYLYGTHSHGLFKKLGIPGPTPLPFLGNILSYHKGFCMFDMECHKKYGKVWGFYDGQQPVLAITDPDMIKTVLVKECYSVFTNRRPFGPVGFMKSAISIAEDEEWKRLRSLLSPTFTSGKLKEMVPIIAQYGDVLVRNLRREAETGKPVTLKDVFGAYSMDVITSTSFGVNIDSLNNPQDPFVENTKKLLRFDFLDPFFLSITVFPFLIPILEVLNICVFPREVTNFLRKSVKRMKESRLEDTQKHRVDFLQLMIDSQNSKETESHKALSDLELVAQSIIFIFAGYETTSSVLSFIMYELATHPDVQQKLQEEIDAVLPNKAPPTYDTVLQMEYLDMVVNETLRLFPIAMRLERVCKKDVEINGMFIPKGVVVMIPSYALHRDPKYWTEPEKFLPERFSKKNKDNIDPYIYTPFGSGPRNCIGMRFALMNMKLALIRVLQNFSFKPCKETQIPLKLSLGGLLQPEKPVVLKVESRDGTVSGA

Row | Compound | IC50 (Cytochrome P450 2D6) | Ki [1] | further results
1 | Cc1oc2ccc(N3C[C@]4(CN5CCC4CC5)OC3=O)cc2c1C | > 30000 nM | 4 nM | –
2 | O=C1NCC2(CN3CCC2CC3)O1 (single isomer, unassigned) | – | – | Activity [2]: Agonist
3 | O=C1O[C@]2(CN3CCC2CC3)CN1c1ccc(Cl)s1 | 2000 nM | – | Activity (Cytochrome P450 2C9): Not Active; Activity (Cytochrome P450 3A4): Not Active; Activity (Cytochrome P450 2C19): Not Active; Activity (Cytochrome P450 1A2): Not Active
4 | O=C1O[C@]2(CN3CCC2CC3)CN1c1ccc2c(c1)OCC2 | – | 410 nM | –
5 | O=C1OC2(CN3CCC2CC3)CN1c1ccc2ncccc2c1 (single isomer, unassigned) | – | – | IC50 [1]: > 1000 nM
6 | O=C1O[C@]2(CN3CCC2CC3)CN1c1ccc2sccc2c1 | > 30000 nM | 28 nM | –
7 | Cn1c(=O)sc2cc(N3CC4(CN5CCC4CC5)OC3=O)ccc21 (single isomer, unassigned) | – | – | IC50 [1]: > 1000 nM
8 | Cn1c(=O)oc2cc(N3CC4(CN5CCC4CC5)OC3=O)ccc21 (single isomer, unassigned) | – | – | IC50 [1]: > 1000 nM
9 | CCc1coc2ccc(N3C[C@@]4(CN5CCC4CC5)OC3=O)cc12 | 21000 nM | 8 nM | –
10 | CCc1c(C)oc2ccc(N3C[C@@]4(CN5CCC4CC5)OC3=O)cc12 | – | 15 nM | –
11 | O=C1O[C@]2(CN3CCC2CC3)CN1c1ccc2c(c1)OCO2 | > 30000 nM | 37 nM | Activity [2]: Agonist
12 | O=C1O[C@]2(CN3CCC2CC3)CN1c1ccc2ccoc2c1 | – | 50 nM | –

Reference: ChEMBL document CHEMBL1138068 (J Med Chem, 2006)
